The record followed here is a melting point compilation (Tetko et al.; mined from patent text by program, amines drawn as free bases though some values may be those of a salt).

One may read the melting point as the temperature of the solid-liquid transition. Regarding `COCCCNc1cccc(Oc2ccc(-c3cn(C4CCOCC4)c4ncnc(N)c34)cc2)c1C#N`, the melting point lay within 205 to 207 °C.
Consider `O=C(O)Cc1nc(-c2c(Cl)cccc2Cl)no1`, for which the melting point lay within 124 to 126 °C.
`CC(C)(C)C1Cc2cc(N3C[C@H](CO)OC3=O)ccc2N1C(=O)OCc1ccccc1` (some centres undefined) displayed a melting point of 141 to 149 °C.
For `COc1nc2ccccc2cc1NC(=O)N1CCN(c2ccccc2Cl)CC1` the value was 79 to 80 °C.
`Cn1cc(C(=O)O)c(=O)c2cc3cc(F)c(N4CCNC(c5ccco5)C4)cc3nc21` (racemic) yielded a melting point of 258 to 260 °C.
For `CC(N)C(=O)N(CCC(=O)O)C1Cc2ccccc2C1` (centres undefined) the value was 205 to 206 °C; for `COc1ccc(C=C2NC(C(=O)Cc3cc(OC)c(OC)c(OC)c3)=Cc3ccccc32)cc1OC`, 164 to 170 °C.
`CC(=S)NCC1CN(c2ccc(NC=O)c(F)c2)C(=O)O1` (centres undefined) registered a melting point of 177 to 178 °C.
To `CC(Nc1ccccc1)=C(C#N)C(=O)Nc1ccccc1Cl` belongs 110 to 112 °C; to `CNc1c(C)cc([N+](=O)[O-])cc1C`, 99 °C; to `CCCCn1c(=O)n(O)c(=O)c2cc(F)c(N3CCCC3)nc21`, 153 to 155 °C.
For `O=S(=O)(NCC1CCN(C[C@H]2COc3ccc(Cl)cc3O2)CC1)c1ccc(F)cc1` the value was 127 to 129 °C.
To `Ic1c[nH]c2ncccc12` belongs 201 to 204 °C; to `CC1N=CC=C(CS)C1(O)CC(=O)O` (centres undefined), 185 to 187 °C; to `CCOC(=O)Nc1nc2ccccc2c2c1nc(CC)n2CCCCNS(C)(=O)=O`, 185 to 187 °C.
The compound `CNc1cc(Oc2ccc(NC(=O)Nc3ccc(C(C)(C)C)cc3)cc2)ncn1` yielded a melting point of 245 to 246 °C.
Regarding `COc1ccc2c(c1)CCC1C2CCC2(C)C(O)CCC12` (centres undefined), the melting point lay within 121 to 124 °C.
As for `O=C(O)Cc1ccc(-c2onc3ccccc23)cc1`, the melting point was in the range of 179 to 181 °C.
To `CCNC(=O)c1c([Si](C)(C)C)ccc(OC)c1Cl` belongs 136 to 137 °C; to `Oc1cnccc1CCCOc1cccnc1Oc1cc(Cl)cc(Cl)c1`, 99 to 101 °C; to `Cc1ccc(S(=O)(=O)OCC(COC(C)(C)C)OS(=O)(=O)c2ccc(C)cc2)cc1` (single isomer, unassigned; (+)), 70 to 71 °C.
In turn, `CCOC(=O)C(C#N)c1ncccc1N` (centres undefined) yielded a melting point of 118 to 119 °C.
`CC(C)(C)OC(=O)N1CCC[C@@H]1[C@@H](NC(=O)c1ccc(Cl)cc1)NC(=NC#N)Nc1cccnc1`: the melting point lay in the range of 184 to 185 °C.
`CN(CCOc1ccc(C=C2SC(=O)NC2=O)cc1)c1ccccn1` displayed a melting point of 177 to 179 °C.
As for `CCOC(=O)c1cc(NC(C)=O)c(=O)[nH]c1C(=O)OCC`, the melting point is 149 to 151 °C.
For `Oc1ccc2cc(COCC3CC3)ccc2c1` the value was 129 to 132 °C; for `CC(C)(C)Nc1nc2ccc(Cl)cc2c2nc(-c3ccco3)nn12`, greater than 330 °C.
`Cc1ccc(C2(O)c3c(C)c(N)c(C)c(C)c3OC2(C)C)cc1` (centres undefined) displayed a melting point of 165 to 166 °C.
For `O=C(O)Cc1noc(CC(=O)O)n1`, the melting point lay in the range of 109 to 111 °C.
To `C#CCNC(=O)c1ncn2c1CN(C)C(=O)c1ccccc1-2` belongs 213 to 215 °C.
For the compound `Cn1ccnc1Sc1ccc(Nc2c(C#N)cnc3cc(-c4ccc(CN5CCOCC5)cc4)ccc23)cc1Cl`, the melting point fell in the range of 148 to 150 °C.
`CN1CCN(C2=Nc3cc(Cl)ccc3Nc3ccsc32)CC1` registered a melting point of 225 to 226 °C.
As for `O=C(Nc1ccc(F)cc1O)c1cc(Cl)c(O)c(Cl)c1`, the melting point was in the range of 223 to 224 °C.
To `CC(C)c1c(C=O)c(-c2ccc(F)cc2)n2ccccc12` belongs 97 to 98 °C.
For `COC(=O)c1ccc(CC(C)NCC(O)c2ccc(O)c(CO)c2)c(F)c1` (centres undefined) the value was 97 to 100 °C; for `Cc1ccc(Cc2cnc(NCCNc3ncc(Cl)cc3C)[nH]c2=O)cn1`, 112 to 115 °C.
The compound `CC(OC(=S)Nc1ccc(-c2ncn(-c3ccc(OC(F)(F)F)cc3)n2)cc1)c1ccc(C(F)(F)F)nc1` (centres undefined) yielded a melting point of 186 to 188 °C.
`CCOC(=O)C1=C(C)NC(C)=C(C(=O)OCC)C1c1cc([N+](=O)[O-])ccc1OCCCCNCC(O)COc1ccccc1` (centres undefined) registered a melting point of 141 to 143 °C.
For `COC(=O)C1=C(C)NC(C(OC)OC)=C(C(=O)OC)C1c1cccc2c(=O)c(C)c(-c3ccccc3)oc12` (centres undefined) the value was 166 to 168 °C; for `CC(C)(C)c1ncc(O)c(Cl)n1`, 108 °C.
To `COc1ccc(C=Cc2ccc(C)c(Cl)c2)c(Cl)c1` belongs 77 to 79 °C; to `O=C1CCCc2c1c1cccc(Cl)c1n2Cc1ccc(F)cc1`, 166 °C; to `CN1Cc2cncn2-c2ccc(F)cc2C1=O`, 236 °C.
`CC(C)(C)C(NC(=O)c1ccc(Cl)cc1)NC(=NC#N)NCc1cccc(Cl)c1` (centres undefined) gave a melting point of 178 to 180 °C.
On to `COc1ccc(CCc2cccc(C(=O)Nc3ccc(Cl)cc3)c2O)cc1`, for which the melting point stood at 141 °C.
Compound `Clc1ccc(-c2cc3ncnc(Nc4ccc5[nH]ccc5c4)c3s2)cc1` had a melting point of 190 to 210 °C.
For `CCN(Cc1cccnc1)C(=S)NC` the value was 122 to 123 °C.
The compound `OCCNC(=S)NC(=Nc1ccccc1)c1ccccc1` gave a melting point of 144 to 145 °C.
To `OC[C@H]1O[C@@H]1c1ccc(Cl)cc1` belongs 59 to 68 °C; to `O=C(O)CCCOc1ccc(-c2ccc(-c3c(Cc4ccccc4)sc4ccccc34)cc2)cc1Br`, 135 to 137 °C; to `CN1C(=O)C2(CCN(Cc3ccccc3)CC2)N=C(c2ccccc2)c2cc(Cl)ccc21`, 169 to 170 °C.
For `O=C(O)COc1ccc(SCc2ccc(OCc3ccc(F)cc3F)cc2)c2c1CCC2` the value was 158 to 160 °C; for `CC1Oc2ccc(C3=NNC(=O)CC3)cc2N(C)C1=O` (centres undefined), 210 to 211 °C.
As for `Nc1nc(C#Cc2ccccc2)nc2nc(-c3ccco3)nn12`, the melting point was greater than 280 °C.
`COC(=O)n1cc(Cl)c(-c2cc(Cl)cc(Cl)c2)n1` showed a melting point of 144 °C.
Consider `CCOc1nc(NCc2ccco2)nc(N2CCN(Cc3ccccn3)CC2)n1`, for which the melting point lay within 115 to 117 °C.
To `Fc1cc2c(c(-c3c(Cl)cccc3Cl)c1)OC(CNC1CC1)C2` (centres undefined) belongs 112 to 113 °C; to `CCCC(=O)NC1=CC(=O)c2ccc(C)nc2C1=O`, 188 to 189 °C.
To `O=S(=O)(c1ccc(Cl)cc1)C1(c2cnccc2Cl)CCCCC1` belongs 145 to 147 °C.
To `COC(=O)c1ccccc1Oc1ccc(S(=O)(=O)NCc2ccnc3ccccc23)cc1` belongs 163 to 166 °C; to `CC(C)(C)OC(=O)NC1C(=O)N(C(O)C(=O)OC(c2ccccc2)c2ccccc2)C1CBr` (centres undefined), 133 to 137 °C.
`CC(=O)C1C(Cl)CC2C3CCC4CC(O)CCC4(C)C3C(=O)CC21C` (centres undefined) came in with a melting point of 226 to 227 °C.
`O=C(Cc1c(-c2ccccc2)c2cc3c(cc2oc1=O)C(=O)OC3)Nc1ccc(F)cc1C(F)(F)F`: the melting point fell in the range of 253 to 254 °C.
For `CCc1cc(N)ccc1N1C(=O)c2ccc(Cl)cc2C1=O` the value was 118 to 120 °C; for `COc1ccc(C2=NNC(=O)[C@H]3CC=CC[C@@H]23)cc1OC` (relative stereo), 173 to 174 °C; for `CS(=O)(=O)c1ccc(-c2cc(Br)nc(C(F)(F)F)c2-c2ccc(F)cc2)cc1`, 188 to 189 °C.
`CC(C)N(Cc1ccc(COc2cccc3c2CN(C2CCC(=O)NC2=O)C3=O)cc1)C(C)C` (centres undefined): the melting point is 201 to 203 °C.
To `CC(=O)Nc1ccc(CC2CCN(CCS(=O)c3ccc4[nH]c(=O)oc4c3)CC2)cc1` (centres undefined) belongs 104 to 105 °C.
To `O=C(O)C(CBr)(c1ccccc1)c1ccccc1` belongs 201 to 202 °C.
`Cc1cc(CCCCCOc2c(Cl)cc(-c3cccs3)cc2Cl)on1` registered a melting point of 45 to 47 °C.
`CCCCc1c(-c2ccncc2)[nH]c(-c2ccncc2)c1C(=O)OCC`: the melting point was 256 to 258 °C.
To `C#CC(C)(C)c1cc(N)no1` belongs 98 to 100 °C; to `CCn1ncnc1COc1nc2c(cnn2-c2ccccc2)cc1C(C)(C)C`, 150 to 152 °C; to `COC(=O)CCCc1cc2c(Cl)c(C#N)cnc2s1`, 55 to 57 °C.
As to `COc1ccc(C(=NOC(C)=O)c2cccc(F)c2F)c(O)c1Cl`, the melting point fell in the range of 136 to 139 °C.
In turn, `CC(C)(CNC=O)c1ccc2nc(-c3c[nH]cn3)[nH]c2c1` registered a melting point of 240 to 246 °C.
`Cc1ccccc1-c1ccc(C(=O)N2Cc3ccc(C(=O)NCCc4ccc5c(c4)OCO5)n3Cc3ccccc32)cc1C` registered a melting point of 154 to 157 °C.
For `COc1ccc(N(C(=O)C(C)c2ccccc2)c2cccc(Nc3c(N)c(=O)c3=O)c2)cc1` (centres undefined) the value was 168 to 170 °C.
In turn, `CCCCCCCCCCCCC(C)(CO)CO` yielded a melting point of 67 to 68 °C.
Regarding `CS(=O)(=O)OCCOc1ccccc1OCc1ccccc1`, the melting point is 98 to 100 °C.
Compound `CN1C(=O)[C@@H](NC(=O)c2ccccc2I)N=C(c2ccccc2)c2ccccc21` yielded a melting point of 115 to 120 °C.
For `O=C1N[C@H](Cc2ccc(F)cc2)[C@H](c2ccc(F)cc2)O1` (racemic) the value was 197 to 198 °C; for `c1ccc(-n2ncnc2-c2ccncc2)cc1`, 92 to 94 °C; for `Cc1cc(SCc2sc(-c3ccc(C(F)(F)F)cc3)nc2C)ccc1OCC(=O)O`, 139 to 141 °C.
Compound `COC(=O)c1cccc2nc(-c3ccccc3)oc12` registered a melting point of 77 °C.
Compound `COC(=O)c1ccc2c(c1)c(Cc1ccc(C(=O)O)cc1OC)cn2C` had a melting point of 228 to 230 °C.
Regarding `COc1cc(C(=O)c2ccc(OCc3ccccc3)cc2N)cc(OC)c1OC`, the melting point lay within 79 to 80 °C.
For `N#Cc1ccc2nc(-c3ccc(Br)o3)cn2c1` the value was 212 to 214 °C; for `COc1cc(OCCBr)ccc1C=O`, 78 to 79 °C.
